The supplement of paper PMC8671470
± gives the standard deviation of the averaged measurements.

Experiments:
Conditions in all cases: 72 h
[1] = test system: MV4-11
Method in brief: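 The IC50 was read from log-logistic dose–response fits. Fifteen myeloid leukaemia lines were exposed for 72 h at 37 °C with 5% CO2 to five tenfold doses from 1 to 10,000 nM in duplicate. ATP luminescence, normalised to vehicle and to a 10 µM positive control, was fitted with four parameters.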

[2] = test system: KG-1; test: cell viability (% survival relative to DMSO control, bortezomib = 0%); higher = less cytotoxic
Method in brief: (§1)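 Fifteen myeloid leukaemia cell lines (10 AML, 5 CML) were seeded at a density titrated to the linear growth range. They went into 384-well plates with compounds pre-printed at 1, 10, 100, 1000 or 10000 nM in duplicate. After 72 h at 37 °C with 5% CO2, viability was read by CellTiter-Glo luminescence. Values are percent survival, with vehicle set to 100% and a 10 µM positive control to 0%, averaged over the duplicates.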

[3] = test system: K-562; test: as above
Method in brief: as §1

[4] = test system: LAMA-84; test: as above
Method in brief: as §1

[5] = test system: MOLM-13; test: as above
Method in brief: as §1

[6] = test system: KU-812; test: as above
Method in brief: as §1

[7] = test system: KCL-22; test: as above
Method in brief: as §1

[8] = test system: NOMO-1; test: as above
Method in brief: as §1

[9] = test system: HEL; test: as above
Method in brief: as §1

[10] = test system: SHI-1; test: as above
Method in brief: as §1

[11] = test system: Mono-Mac-6; test: as above
Method in brief: as §1

[12] = test system: BV-173; test: as above
Method in brief: as §1

[13] = test system: HL-60; test: as above
Method in brief: as §1

[14] = test system: ML-2; test: as above
Method in brief: as §1

[15] = test system: MV4-11; test: as above
Method in brief: as §1

[16] = test system: THP-1; test: as above
Method in brief: as §1

[17] = test system: HL-60; test: area under dose-response curve (viability, 1 nM-10 uM) (fraction (0-1)); higher = more sensitive
Method in brief: (§2)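 HL-60 cells in RPMI 1640 with 10% FBS were rescreened against the full library on 384-well plates at five tenfold concentrations, 1–10,000 nM, in duplicate. Each screen was run with DMSO or 100 nM of one of three metabolic inhibitors, for 72 h at 37 °C, 5% CO2. Viability was read by CellTiter-Glo and normalised to DMSO and 10 μM proteasome-inhibitor wells. Where given, area under the curve came from four-parameter log-logistic fits (drc, PharmacoGx).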

[18] = test system: HL-60; test: cell viability (% survival relative to DMSO control); higher = less cytotoxic
Method in brief: as §2

OC[C@H]1N[C@@H](c2c[nH]c3c(O)ncnc23)[C@H](O)[C@@H]1O [Forodesine]
Conditions	IC50 (cell viability) [µM]
[1]	> 10

Conditions	area under dose-response curve, co-treatment: AZD3965 100 nM	area under dose-response curve, co-treatment: DMSO vehicle	area under dose-response curve, co-treatment: GSK2194069 100 nM	area under dose-response curve, co-treatment: pictilisib 100 nM	cell viability, 1 nM [%]	cell viability, 10 nM [%]	cell viability, 100 nM [%]	cell viability, 1000 nM [%]	cell viability, 10000 nM [%]
[2]	–	–	–	–	107	94.2	95.4	85.1	82.8
[3]	–	–	–	–	94.9	94.4	88.3	97.5	99.3
[4]	–	–	–	–	96.4	90.1	94.7	93	88.7
[5]	–	–	–	–	81.3	89.2	93.1	103	84.1
[6]	–	–	–	–	89.9	96	96.8	96.4	75.4
[7]	–	–	–	–	102	91.8	100	99.2	91.3
[8]	–	–	–	–	97.9	92.3	97.3	96.9	87.4
[9]	–	–	–	–	103	95.9	102	92.6	88.6
[10]	–	–	–	–	101	95.5	94.3	108	98.9
[11]	–	–	–	–	109	87.5	107	108	88.5
[12]	–	–	–	–	95.1	83.9	103	91.1	89.1
[13]	–	–	–	–	92.1	98	95.8	102	90.2
[14]	–	–	–	–	92.7	85	95.3	92.9	85.7
[15]	–	–	–	–	97.1	94.5	91.7	92.3	90.3
[16]	–	–	–	–	100	93.9	90.7	83.1	74.3
[17]	< 0.0301	< 0.0301	< 0.0301	< 0.0301	–	–	–	–	–

cell viability [%], [18]
Conditions	0.001 µM	0.01 µM	0.1 µM	1 µM	10 µM
co-treatment: AZD3965 100 nM	97.5 ± 7.8	105 ± 1.2	101 ± 4.2	101 ± 3	94 ± 6.8
co-treatment: DMSO vehicle	101 ± 2.1	105 ± 1.1	105 ± 5.4	99.2 ± 1.5	100.1 ± 0.95
co-treatment: GSK2194069 100 nM	100 ± 3.5	103 ± 2.1	96.2 ± 1.4	98.2 ± 2.8	95.9 ± 5.8
co-treatment: pictilisib 100 nM	79.7 ± 8.4	93.3 ± 3.5	99.5 ± 11	95.3 ± 3.3	103.8 ± 0.76

O=C(Oc1ccc([N+](=O)[O-])cc1)N1CCC(C(O)(c2ccc3c(c2)OCO3)c2ccc3c(c2)OCO3)CC1 [JZL184]
Conditions	IC50 (cell viability) [µM]
[1]	> 10

Conditions	area under dose-response curve, co-treatment: AZD3965 100 nM	area under dose-response curve, co-treatment: DMSO vehicle	area under dose-response curve, co-treatment: GSK2194069 100 nM	area under dose-response curve, co-treatment: pictilisib 100 nM	cell viability, 1 nM [%]	cell viability, 10 nM [%]	cell viability, 100 nM [%]	cell viability, 1000 nM [%]	cell viability, 10000 nM [%]
[2]	–	–	–	–	101	107	100	104	94
[3]	–	–	–	–	92.8	110	106	87	95.7
[4]	–	–	–	–	97	102	95.9	89.7	96.6
[5]	–	–	–	–	92.2	100	117	107	92.9
[6]	–	–	–	–	101	102	112	90.5	85.8
[7]	–	–	–	–	90.8	108	112	105	92.3
[8]	–	–	–	–	101	99.5	102	102	95.2
[9]	–	–	–	–	97.3	114	120	90.6	97.4
[10]	–	–	–	–	110	97.9	129	103	90.7
[11]	–	–	–	–	90.2	111	104	103	92.3
[12]	–	–	–	–	95.2	96.5	90.7	92.9	69.4
[13]	–	–	–	–	96.9	98.8	105	103	101
[14]	–	–	–	–	102	112	114	104	98.9
[15]	–	–	–	–	94.9	95.7	98.9	94.5	88.5
[16]	–	–	–	–	97.2	103	95.4	101	96.2
[17]	< 0.0301	< 0.0301	< 0.0301	< 0.0301	–	–	–	–	–

cell viability [%], [18]
Conditions	0.001 µM	0.01 µM	0.1 µM	1 µM	10 µM
co-treatment: AZD3965 100 nM	110 ± 11	92.8 ± 12	104 ± 2.5	98.7 ± 2.8	105.1 ± 0.87
co-treatment: DMSO vehicle	100 ± 1.5	93.8 ± 6	100.9 ± 0.17	101 ± 2.3	97.3 ± 2.7
co-treatment: GSK2194069 100 nM	103 ± 3.2	99.6 ± 1	99.2 ± 8.9	101 ± 4.3	107 ± 13
co-treatment: pictilisib 100 nM	83.1 ± 35	89.4 ± 14	97.2 ± 3	95.5 ± 2.7	99 ± 11
